In US6518316B1, “Cytokine production and tyrosine kinase inhibitors” (Xenova Limited, priority 1998, dated 2003) one finds IC50 data, which are given here for 15 molecules.

For assay [1], the system named is IL-2 production by Jurkat E6-1 cells. The assay is described as follows: Cytokine (IL-2) release from PMA pre-treated, anti-CD28 stimulated Jurkat E6-1 cells (DELFIA). Format: cell-based. Particulars: anti-CD28, 18 hours, read-out: IC50 for the inhibition of anti-CD28 induced IL-2 production by Jurkat E6-1 cells. As to the method:
Jurkat E6-1 cell line was obtained from American Tissue Culture Collection (ATCC, Rockville, USA). The cells were pre-treated with 3 ng/ml phorbol myristate acetate (PMA) for three hours, washed and exposed to dose ranges of the compound to be tested followed by the addition of 5 μg/ml anti-CD28.
After 18 hours incubation at 37° C. and 5% CO2, cell culture supernatants were harvested for determination of IL-2 secretion by Dissociation Enhanced Lanthanide Fluorescence Immuno Assay (DELFIA). The effect of compound on cell cytotoxicity was determined using a redox potential sensitive dye, resazurin. Effects on protein synthesis were determined by investigation of [^3H] leucine uptake.

In a further assay the target is recombinant abl kinase (Homo sapiens, UniProt P00519). The experiment in a line: Inhibition of tyrosine kinase activity (abl kinase, LANCE time resolved fluorescence). Format: biochemical. The note with it: abl kinase, peptide 6-20 p34cdc substrate. The source says: Phosphorylation of the peptide substrate was detected using a non-separation time resolved fluorescence assay (LANCE™) using anti-phosphotyrosine conjugated europium and streptavidin conjugated allophycocyanin (APC).
recombinant abl kinase, sequence (P00519 whole entry): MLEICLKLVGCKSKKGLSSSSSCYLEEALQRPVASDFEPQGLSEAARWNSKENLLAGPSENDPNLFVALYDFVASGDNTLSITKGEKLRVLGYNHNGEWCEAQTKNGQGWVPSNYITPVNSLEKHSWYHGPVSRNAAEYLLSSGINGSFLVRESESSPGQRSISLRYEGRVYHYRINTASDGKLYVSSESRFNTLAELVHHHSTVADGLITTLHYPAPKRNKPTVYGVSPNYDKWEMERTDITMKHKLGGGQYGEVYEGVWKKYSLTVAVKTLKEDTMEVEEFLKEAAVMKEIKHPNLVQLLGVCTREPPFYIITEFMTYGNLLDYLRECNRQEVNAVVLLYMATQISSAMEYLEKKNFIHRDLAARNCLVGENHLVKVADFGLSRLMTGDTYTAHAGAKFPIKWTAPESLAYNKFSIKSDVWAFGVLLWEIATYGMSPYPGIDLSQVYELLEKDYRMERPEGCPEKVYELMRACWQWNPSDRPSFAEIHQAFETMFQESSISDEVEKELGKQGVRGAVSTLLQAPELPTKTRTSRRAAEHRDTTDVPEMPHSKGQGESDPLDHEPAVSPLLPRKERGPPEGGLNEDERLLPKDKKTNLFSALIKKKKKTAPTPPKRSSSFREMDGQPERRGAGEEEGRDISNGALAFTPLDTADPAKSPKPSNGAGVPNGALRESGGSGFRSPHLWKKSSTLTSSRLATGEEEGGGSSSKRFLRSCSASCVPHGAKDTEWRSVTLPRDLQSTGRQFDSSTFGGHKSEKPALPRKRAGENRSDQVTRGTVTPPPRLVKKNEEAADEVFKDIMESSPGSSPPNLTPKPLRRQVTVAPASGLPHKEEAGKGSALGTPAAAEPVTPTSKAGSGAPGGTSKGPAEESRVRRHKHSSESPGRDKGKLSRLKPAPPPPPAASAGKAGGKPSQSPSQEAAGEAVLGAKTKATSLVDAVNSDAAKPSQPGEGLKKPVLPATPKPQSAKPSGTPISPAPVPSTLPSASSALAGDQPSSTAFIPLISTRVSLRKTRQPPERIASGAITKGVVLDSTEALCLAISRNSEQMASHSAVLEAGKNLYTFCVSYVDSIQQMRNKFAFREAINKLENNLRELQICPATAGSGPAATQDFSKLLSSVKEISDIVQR
A general note: In TR-FRET formats the signal depends on donor and acceptor labels being close together.

[2] abbreviates: Homo sapiens, Jurkat E6.1, PMA pre-treated.

SMILES strings stand for the structures. Read-outs that look alike come from different tables or passages of the source.

Usually IC50 stands for the concentration that gives 50% inhibition. For `CCCOC1c2c(O)cccc2C2=C3CCC(=O)c4c(O)ccc(c43)C2C1OC` (centres unmarked) [Compound 9, 4,9-Dihydro-7-methoxy-8-propoxy-1,6b,7,8-tetrahydro-2H-benzo[j]fluoranthen-3-one], the results for the IC50 (in assay [1] (setting [2]); on recombinant abl kinase) were 10900 nM and 132 nM, respectively.

Regarding `COC1C(O)c2c(O)cccc2C2=C3CCC(NC4CC4)c4c(O)ccc(c43)C21` (centres unmarked) [Compound 5, 3-Cyclopropylamino-7-methoxy-1,2,3,6b, 7,8-hexahydrobenzo[d]fluoranthen-4,8,9-triol], the IC50 in assay [1] (setting [2]) was 1280 nM; on recombinant abl kinase it was over 1000 nM.

With `COC1C(O)c2c(O)cccc2C2=C3CCC(=O)c4c(O)c(Cl)cc(c43)C21` (centres unmarked) [Compound 8, 5-Chloro-4,8,9-trihydroxy-7-methoxy-1,6b,7,8-tetrahydro-2H-benzo[j]fluoranthen-3-one], the IC50 on recombinant abl kinase is over 1000 nM.

In the case of `CO[C@H]1[C@H](OC)c2c(O)cccc2C2=C3CCC(=O)c4c(O)ccc(c43)[C@@H]21` (relative stereo) [Compound 11a], the IC50 in assay [1] (setting [2]) is over 6180 nM; at recombinant abl kinase, 2360 nM.

Regarding `COC1C(O)c2c(O)cccc2C2=C3CCC(O)c4c(O)ccc(c43)C21` (single isomer, unassigned) [Compound 2a], the IC50 is 2960 nM in assay [1] (setting [2]) and over 1000 nM on recombinant abl kinase.

`CCOC1c2c(O)cccc2C2=C3CCC(=O)c4c(O)ccc(c43)C2C1OC` (centres unmarked) [Compound 10, 8-Ethoxy-4,9-dihydroxy-7-methoxy-1,6b,7,8-tetrahydro-2H-benzo[j]fluoranthen-3-one]: the IC50 in assay [1] (setting [2]) is 2350 nM; at recombinant abl kinase, 274 nM.

Turning to `COC1C(=O)c2c(O)cccc2C2=C3CCC(=O)c4c(O)ccc(c43)C21` (centres unmarked) [Compound (II)], the IC50 (in assay [1] (setting [2]); on recombinant abl kinase) was over 5000 nM in each case.

In the case of `COC1C(O)c2c(O)cccc2C2=C3CCC(O)c4c(O)ccc(c43)C21` (single isomer, unassigned) [Compound 2b], the IC50 on recombinant abl kinase is over 1000 nM.

For the molecule `COc1cccc2c1C(O)C(OC)C1C2=C2CCC(=O)c3c(O)ccc1c32` (centres unmarked) [Compound 4], the values for the IC50 (in assay [1] (setting [2]); at recombinant abl kinase) were 6640 nM and over 1000 nM, respectively.

Take `COC1C(O)c2c(O)cccc2C2=C3CCC(=NO)c4c(O)ccc(c43)C21` (centres unmarked) [Compound 7, 4,8,9-Trihydroxy-7-methoxy-1,6b,7,8-tetrahydro-2H-benzo[j]fluoranthen-3-one oxime]: the IC50 in assay [1] (setting [2]) is over 1490 nM; on recombinant abl kinase, over 1000 nM.

On to `COC1C(O)c2c(O)cccc2C23OC24CCC(=O)c2c(O)ccc(c24)C13` (centres unmarked) [Compound 3], for which the IC50 in assay [1] (setting [2]) is over 9560 nM; on recombinant abl kinase it was 700 nM.

Regarding `COC1c2c(O)cccc2C2=C3CCC(=O)c4c(O)ccc(c43)C2C1OC` (centres unmarked) [Compound (III)], the IC50 in assay [1] (PMA pre-treated) was determined as 4300 nM.

For the molecule `CCO[C@@H]1c2c(O)cccc2C2=C3CCC(=O)c4c(O)ccc(c43)[C@@H]2[C@H]1OC` [Compound 10a], the IC50 in assay [1] (setting [2]) is over 7940 nM; on recombinant abl kinase it was over 5000 nM.

Consider `CO[C@H]1[C@@H](O)c2c(O)cccc2C2=C3CCC(=O)c4c(O)ccc(c43)[C@H]21` [Compound (Ib)], for which, in assay [1] (setting [2]), the IC50 is 2500 nM.

Consider `COC1c2c(O)cccc2C2=C3CCC(=O)c4c(O)ccc(c43)C2C1OC` (centres unmarked) [Compound 11, 4,9-Dihydroxy-7,8-dimethoxy-1,6b,7,8-tetrahydro-2H-benzo[j]fluroanthen-3-one], for which the results for the IC50 (in assay [1] (PMA pre-treated); on recombinant abl kinase) were 1060 nM and 45 nM, respectively.
